The values below come from patent US20260138961A1, “MODULATORS OF MITOCHONDRIAL DNA REPLICATION” (Pretzel Therapeutics, Inc., priority 2022, published 2026).

A value given as a limit tells only on which side of the number the result lay.

The test concerns the target T1, POLγA:G848S (Homo sapiens, UniProt P54098, G848S).
T1 sequence (P54098 1-1239 G848S): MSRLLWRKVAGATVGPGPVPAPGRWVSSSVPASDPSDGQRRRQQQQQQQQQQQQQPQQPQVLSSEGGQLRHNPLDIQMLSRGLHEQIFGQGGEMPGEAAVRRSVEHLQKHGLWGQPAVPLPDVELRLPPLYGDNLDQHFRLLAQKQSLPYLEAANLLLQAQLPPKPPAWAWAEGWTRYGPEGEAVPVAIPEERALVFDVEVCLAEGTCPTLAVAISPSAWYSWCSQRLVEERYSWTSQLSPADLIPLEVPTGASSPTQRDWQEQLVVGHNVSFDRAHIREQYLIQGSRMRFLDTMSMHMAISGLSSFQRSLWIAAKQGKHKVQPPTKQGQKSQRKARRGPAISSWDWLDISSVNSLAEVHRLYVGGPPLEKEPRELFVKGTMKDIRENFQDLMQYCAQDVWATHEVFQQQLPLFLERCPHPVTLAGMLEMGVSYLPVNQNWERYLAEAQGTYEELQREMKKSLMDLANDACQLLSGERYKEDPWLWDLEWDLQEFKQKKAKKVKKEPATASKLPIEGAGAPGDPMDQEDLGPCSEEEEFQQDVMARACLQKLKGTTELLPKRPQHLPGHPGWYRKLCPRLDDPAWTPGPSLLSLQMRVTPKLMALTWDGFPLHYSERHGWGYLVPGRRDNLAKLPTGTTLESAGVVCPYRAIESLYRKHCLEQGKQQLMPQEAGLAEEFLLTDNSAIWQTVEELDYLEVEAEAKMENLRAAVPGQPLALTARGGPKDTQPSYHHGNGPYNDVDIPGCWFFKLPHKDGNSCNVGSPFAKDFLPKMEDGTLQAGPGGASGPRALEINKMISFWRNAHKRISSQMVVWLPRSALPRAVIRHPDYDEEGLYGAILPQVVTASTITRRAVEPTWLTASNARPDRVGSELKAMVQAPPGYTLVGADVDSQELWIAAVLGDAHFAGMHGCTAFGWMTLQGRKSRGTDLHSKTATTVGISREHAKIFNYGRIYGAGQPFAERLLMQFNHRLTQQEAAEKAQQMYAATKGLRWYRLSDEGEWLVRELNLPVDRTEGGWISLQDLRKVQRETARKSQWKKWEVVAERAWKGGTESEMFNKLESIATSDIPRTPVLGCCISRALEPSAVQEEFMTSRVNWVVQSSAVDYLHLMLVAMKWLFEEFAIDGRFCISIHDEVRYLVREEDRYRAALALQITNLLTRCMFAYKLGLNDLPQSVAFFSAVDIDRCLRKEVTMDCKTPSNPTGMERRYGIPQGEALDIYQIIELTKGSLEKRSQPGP
T1 sequence (Q9UHN1 1-485 partner): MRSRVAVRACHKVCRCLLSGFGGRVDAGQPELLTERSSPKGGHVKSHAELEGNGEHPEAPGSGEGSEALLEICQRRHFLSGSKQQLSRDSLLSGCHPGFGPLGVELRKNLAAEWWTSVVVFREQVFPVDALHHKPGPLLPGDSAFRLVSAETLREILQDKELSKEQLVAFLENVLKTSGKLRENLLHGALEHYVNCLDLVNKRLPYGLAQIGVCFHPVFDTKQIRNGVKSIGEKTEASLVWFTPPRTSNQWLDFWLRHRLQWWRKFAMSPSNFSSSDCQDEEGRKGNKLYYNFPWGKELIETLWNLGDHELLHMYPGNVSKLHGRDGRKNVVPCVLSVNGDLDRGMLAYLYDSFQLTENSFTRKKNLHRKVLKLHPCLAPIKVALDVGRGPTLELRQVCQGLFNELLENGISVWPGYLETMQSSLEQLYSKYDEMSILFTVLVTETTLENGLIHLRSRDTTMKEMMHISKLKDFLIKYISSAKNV
Nature of the test: DNA polymerization assay, POLγA:G848S mutant. To be noted: stimulation of polymerase activity, primed M13mp18 ssDNA, 37° C. 2 hours; read-out: G848S AC50. The format is biochemical.
Turning to `Cc1cc(S(=O)(=O)Nc2cccc(-c3nccn3C)c2)c(C)cc1Cl` [Example 19, 4-chloro-2,5-dimethyl-N-(3-(1-methyl-1H-imidazol-2-yl)phenyl)benzenesulfonamide], the concentration at half-maximal activity (AC50) is 3 µM. Turning to `Cc1cc(S(=O)(=O)Nc2cccc(C(=O)N(C)C)c2)c(C)cc1Cl` [Example 12, 3-((4-chloro-2,5-dimethylphenyl)sulfonamido)-N,N-dimethylbenzamide], the concentration at half-maximal activity (AC50) was 26 µM. With `Cc1ccc(C)c(S(=O)(=O)Nc2cccc(C(=O)N3CCCCC3)c2)c1` [Example 3, 2,5-dimethyl-N-(3-(piperidine-1-carbonyl)phenyl)benzene sulfonamide], the AC50 worked out at 31 µM. On to `O=S(=O)(Nc1csc(-c2ccccc2)n1)c1ccc(C(F)(F)F)cc1F` [Example 141, 2-fluoro-N-(2-phenylthiazol-4-yl)-4-(trifluoromethyl)benzenesulfonamide], for which the concentration at half-maximal activity (AC50) was more than 100 µM. The result for `O=S(=O)(Nc1csc(-c2ccccc2)n1)c1ccc(C(F)(F)F)cc1` [Example 127, N-(2-phenylthiazol-4-yl)-4-(trifluoromethyl)benzenesulfonamide] reads more than 100 µM; that for `Cc1cc(S(=O)(=O)Nc2cccc(-c3ncc(C(=O)N(C)C)s3)c2)c(C)cc1Cl` [Example 94, 2-(3-((4-chloro-2,5-dimethylphenyl)sulfonamido)phenyl)-N,N-dimethylthiazole-5-carboxamide], more than 100 µM. To `Cc1ccc(S(=O)(=O)Nc2csc(-c3ccccc3)n2)c(C)c1` [Example 123, 2,4-dimethyl-N-(2-phenylthiazol-4-yl)benzenesulfonamide] belongs 2 µM. `Cc1cc(S(=O)(=O)Nc2nsc(-c3ccccc3)n2)c(C)cc1Cl` [Example 131, 4-chloro-2,5-dimethyl-N-(5-phenyl-1,2,4-thiadiazol-3-yl)benzenesulfonamide]: the concentration at half-maximal activity (AC50) is 3 µM.

With `O=S(=O)(Nc1csc(-c2ccccc2)n1)c1cccnc1` [Example 121, N-(2-phenylthiazol-4-yl)pyridine-3-sulfonamide], the AC50 is more than 100 µM. On to `O=S(=O)(Nc1csc(-c2ccccc2)n1)c1cccc2nccnc12` [Example 128, N-(2-phenylthiazol-4-yl)quinoxaline-5-sulfonamide], for which the AC50 is more than 100 µM. With `Cc1cc(S(=O)(=O)Nc2cccc(C(=O)N(CC(N)=O)C3CCCC3)c2)c(C)cc1Cl` [Example 113, N-(2-amino-2-oxoethyl)-3-((4-chloro-2,5-dimethylphenyl)sulfonamido)-N-cyclopentylbenzamide], the AC50 worked out at 11 µM. To `Cc1cc(S(=O)(=O)Nc2cccc(C(=O)N3CCC[C@@H]3C)c2)c(C)cc1Cl` [Example 133, (S)-4-chloro-2,5-dimethyl-N-(3-(2-methylpyrrolidine-1-carbonyl)phenyl)benzenesulfonamide] belongs 18 µM; to `Cc1cc(S(=O)(=O)N[C@H]2CCCN(C(=O)c3ccccc3)C2)c(C)cc1Cl` [Example 129, (S)-N-(1-benzoylpiperidin-3-yl)-4-chloro-2,5-dimethylbenzenesulfonamide], more than 100 µM.

As to `Cc1cc(S(=O)(=O)Nc2cccc(-c3ncc(C(N)=O)s3)c2)c(C)cc1Cl` [Example 92, 2-(3-((4-chloro-2,5-dimethylphenyl)sulfonamido)phenyl) thiazole-5-carboxamide], the AC50 worked out at 1 µM. For `Cc1cnc(-c2ccc(Cl)c(NS(=O)(=O)c3cc(C)c(Cl)cc3C)c2)s1` [Example 102, 4-chloro-N-(2-chloro-5-(5-methylthiazol-2-yl)phenyl)-2,5-dimethylbenzenesulfonamide], the AC50 turned out to be 0.4 µM. Regarding `Cc1cc(S(=O)(=O)Nc2cccc(-c3ncc(C#N)s3)c2)c(C)cc1Cl` [Example 96, 4-chloro-N-(3-(5-cyanothiazol-2-yl)phenyl)-2,5-dimethylbenzenesulfonamide], the AC50 came to 4 µM. Turning to `Cc1ccc(C)c(S(=O)(=O)Nc2cccc(C(=O)NCC3CC3)c2)c1` [Example 4, N-(cyclopropylmethyl)-3-((2,5-dimethylphenyl)sulfonamido)benzamide], the concentration at half-maximal activity (AC50) was 33 µM.

`Cc1cc(S(=O)(=O)Nc2cccc(-c3ncc(-c4nnn[nH]4)s3)c2)c(C)cc1Cl` [Example 97, N-(3-(5-(1H-tetrazol-5-yl)thiazol-2-yl)phenyl)-4-chloro-2,5-dimethylbenzenesulfonamide]: the AC50 is more than 100 µM.

For `Cc1ccc(C)c(S(=O)(=O)Nc2cccc(C(=O)N[C@@H](C)C3CC3)c2)c1` [Example 8, (S)-N-(1-cyclopropylethyl)-3-((2,5-dimethylphenyl)sulfonamido)benzamide], the AC50 came to 23 µM. As to `Cc1ccc(C)c(S(=O)(=O)Nc2csc(-c3ccccc3)n2)c1` [Example 134, 2,5-dimethyl-N-(2-phenylthiazol-4-yl)benzenesulfonamide], the AC50 stood at 1 µM. `Cc1cc(Cl)ccc1S(=O)(=O)Nc1csc(-c2ccccc2)n1` [Example 135, 4-chloro-2-methyl-N-(2-phenylthiazol-4-yl)benzenesulfonamide]: the AC50 amounted to 2 µM. For `Cc1cc(S(=O)(=O)Nc2cccc(C(=O)N3CCCOC(C)(C)C3)c2)c(C)cc1Cl` [Example 106, 4-chloro-N-(3-(2,2-dimethyl-1,4-oxazepane-4-carbonyl)phenyl)-2,5-dimethylbenzenesulfonamide], the concentration at half-maximal activity (AC50) was more than 100 µM. To `Cc1cc(S(=O)(=O)Nc2cccc(C(=O)N3CCC[C@H]3C)c2)c(C)cc1Cl` [Example 10, (R)-4-chloro-2,5-dimethyl-N-(3-(2-methylpyrrolidine-1-carbonyl)phenyl)benzenesulfonamide] belongs 3 µM. For `Cc1cnc(-c2cc(NS(=O)(=O)c3cc(C)c(Cl)cc3C)ccc2C)s1` [Example 103, 4-chloro-2,5-dimethyl-N-(4-methyl-3-(5-methylthiazol-2-yl)phenyl)benzenesulfonamide], the AC50 came out at 9 µM. `Cc1cc(S(=O)(=O)Nc2cccc(C(=O)NCc3ccccc3)c2)c(C)cc1Cl` [Example 11, N-benzyl-3-((4-chloro-2,5-dimethylphenyl)sulfonamido)benzamide]: the AC50 came out at 34 µM. As to “(R)-2,5-dimethyl-N-(3-(3-methylmorpholine-4-carbonyl)phenyl)benzenesulfonamide [Example 1]”, the concentration at half-maximal activity (AC50) came out at 18 µM. `Cc1cc(S(=O)(=O)Nc2cccc(C(=O)N3CCc4cn[nH]c4C3)c2)c(C)cc1Cl` [Example 107, 4-chloro-2,5-dimethyl-N-(3-(4,5,6,7-tetrahydro-1H-pyrazolo[3,4-c]pyridine-6-carbonyl)phenyl)benzenesulfonamide]: the AC50 is 7 µM.

Regarding `Cc1cc(S(=O)(=O)Nc2cccc(C(=O)N3CCC[C@H]3CO)c2)c(C)cc1Cl` [Example 145, (S)-4-chloro-N-(3-(2-(hydroxymethyl)pyrrolidine-1-carbonyl)phenyl)-2,5-dimethylbenzenesulfonamide], the AC50 came to 67 µM. For the compound `Cc1cc(S(=O)(=O)N[C@@H]2CCCN(C(=O)[C@H]3CCCN3C)C2)c(C)cc1Cl` [Example 100, 4-chloro-2,5-dimethyl-N-((R)-1-(methyl-D-prolyl)piperidin-3-yl)benzenesulfonamide], the AC50 was more than 100 µM. Turning to `Cc1ccc(C)c(S(=O)(=O)Nc2cccc(C(=O)N3CCCC[C@@H]3C)c2)c1` [Example 6, (S)-2,5-dimethyl-N-(3-(2-methylpiperidine-1-carbonyl)phenyl)benzenesulfonamide], the half-maximal activity concentration (AC50) was 30 µM.

For orientation: AC50 means the midpoint of the concentration-response curve, whichever way the signal moves.
